Molecules are shown by their SMILES.

Test [1] concerns Capan1 cells. As to the kind of experiment: Cell Titer-Glo cell viability assay, Capan1. The format is cell-based. The following applies: Homo sapiens, CAPAN-1, 120 h; Pancreatic cell line Capan1; 5 days compound incubation; 2000 cells/well. Here is the method:
(§1) The Cell Titer-Glo® assay (Promega) was used to measure cell viability. Cells were plated into 96-well black walled tissue culture plates in complete growth media. The plates were then incubated under standard growth conditions of 37° C. and 5% CO2 until the cells had attached to the plates (3-6 hours), then compounds were added to the cells. Compounds were serially diluted in DMSO using 3-fold dilutions and then diluted in complete media before being added to the cells (final DMSO concentration on cells was 0.1-0.2%).
(§2) After compound incubation, the cell plates were equilibrated to room temperature, culture media was removed, and 200 uL of Cell Titer-Glo® reagent mix was added to each well (1:1 mixture of Cell Titer-Glo® reagent and complete growth media, equilibrated to room temperature). The plates were shaken for 5-10 minutes, then sealed and luminescence was measured (using Trilux plate reader, Perkin Elmer).
(§3) Analysis of data was done by subtracting the background luminescence value from each data point, then determining the percent inhibition of total growth (as determined by the values for DMSO-treated wells).
(§4) To determine the EC50 for each compound, the data were fit using the Levenburg Marquardt algorithm, represented in the XLfit software as y=A+((B−A)/(1+((C/x)̂D))), the four parameter dose response model 205, where A is the minimum Y value, B is the maximum Y value, C is the Log IC50 and D is the slope.

Test [2] has as its system G361 cells. The experiment in a line: Cell Titer-Glo cell viability assay, G361. The format is cell-based. The following applies: Homo sapiens, G-361, 96 h; Melanoma cell line G361; 4 days compound incubation; 1000 cells/well. The method, then: as §1, §2, §3, §4
Background: Cellular ATP, detected with luciferase, serves as a proxy for viable cell number.

Test [3] concerns SU86.86 cells. The experiment in a line: Cell Titer-Glo cell viability assay, SU86.86. It counts as cell-based. The following applies: Homo sapiens, SU.86.86, 120 h; Pancreatic cell line SU86.86; 5 days compound incubation; 1000 cells/well. The method, then: as §1, §2, §3, §4
In test [4] the test system is A375 cells. As to the kind of experiment: Cell Titer-Glo cell viability assay, A375. The format is cell-based. Particulars: Homo sapiens, A-375, 72 h; Melanoma cell line A375; 3 days compound incubation; 1000 cells/well. The method, then:
as §1, §2, §3, §4

Test [5] relates to Malme3M cells. The experiment in a line: Cell Titer-Glo cell viability assay, Malme3M. It counts as cell-based. The following applies: Homo sapiens, Malme-3M, 120 h; Melanoma cell line Malme3M; 5 days compound incubation; 1000 cells/well. Here is the method:
as §1, §2, §3, §4

Test [6] concerns K1 cells. As to the kind of experiment: Cell Titer-Glo cell viability assay, K1. The following applies: 96 h; Papillary thyroid cell line K1; 4 days compound incubation; 1500 cells/well. It counts as cell-based. The method, then: as §1, §2
(§5) Analysis of data was done by subtracting the background luminescence value from each data point, then determining the percent inhibition of total growth (as determined by the values for DMSO-treated wells). […]

In test [7] the test system is PC3MM cells. The experiment in a line: Cell Titer-Glo cell viability assay, PC3MM. The format is cell-based. Particulars: 120 h; Prostate cell line PC3MM; 5 days compound incubation; 1500 cells/well. Here is the method:
as §1, §2, §5

For test [8], the target named is T1, b-Raf(V600E) (Homo sapiens, UniProt P15056, V600E).
T1 construct: made in house
T1 sequence (P15056 whole entry V600E): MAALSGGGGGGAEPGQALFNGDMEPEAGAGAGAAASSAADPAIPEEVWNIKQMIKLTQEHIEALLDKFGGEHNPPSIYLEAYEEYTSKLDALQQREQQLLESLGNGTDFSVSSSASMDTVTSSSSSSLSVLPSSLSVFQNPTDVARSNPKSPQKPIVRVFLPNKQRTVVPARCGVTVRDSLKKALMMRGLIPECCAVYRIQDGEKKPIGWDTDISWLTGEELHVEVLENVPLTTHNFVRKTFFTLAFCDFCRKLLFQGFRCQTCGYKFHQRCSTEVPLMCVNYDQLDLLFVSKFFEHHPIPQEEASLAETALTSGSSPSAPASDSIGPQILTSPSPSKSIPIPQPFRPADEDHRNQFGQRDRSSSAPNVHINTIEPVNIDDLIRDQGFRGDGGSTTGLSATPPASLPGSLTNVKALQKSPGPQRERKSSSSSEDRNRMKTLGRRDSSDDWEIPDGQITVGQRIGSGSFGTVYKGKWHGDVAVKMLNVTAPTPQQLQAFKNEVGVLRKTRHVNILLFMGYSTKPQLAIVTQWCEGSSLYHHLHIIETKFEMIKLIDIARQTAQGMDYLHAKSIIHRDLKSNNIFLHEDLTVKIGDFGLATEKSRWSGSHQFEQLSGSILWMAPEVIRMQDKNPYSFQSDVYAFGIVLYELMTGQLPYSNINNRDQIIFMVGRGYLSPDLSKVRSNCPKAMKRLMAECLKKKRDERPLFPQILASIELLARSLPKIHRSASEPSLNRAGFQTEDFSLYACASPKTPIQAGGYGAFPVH
As to the kind of experiment: Raf/Mek Amplified Luminescence Proximity Homogeneous Assay (Alpha Screen), b-Raf(V600E). It counts as biochemical. Particulars: mutant b-Raf(V600E), read-out: mut-b-RAF (IC50 in uM). An outline of the steps: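 IC50 derived by non-linear regression from AlphaScreen luminescence of phospho-MEK (anti-p-MEK antibody). Reaction: ~4 pM b-Raf(V600E), ~10 nM kinase-dead biotinylated Mek, 60 min compound pre-incubation, then 3 h with ATP at room temperature in pH 7.5 Tris/MgCl2/DTT buffer, quenched with EDTA.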

Usually EC50 stands for the midpoint of the concentration-response curve. Read a high EC50 as lower potency in that assay. For `COc1cc(-c2[nH]c(-c3ccccc3)nc2-c2ccncc2)cnc1N` [Compound 1, 3-methoxy-5-(2-phenyl-4-(pyridin-4-yl)-1H-imidazol-5-yl)pyridin-2-amine], the EC50 in test [1] was determined as 570 nM; in test [2], 70 nM; in test [3], 116 nM; in test [4] it was 376 nM; in test [5], 429 nM.
For the molecule `COCC(=O)N[C@@H](C)CNc1nccc(-c2[nH]c(-c3ccc(F)cc3)nc2-c2cnc(N)c(OC)n2)n1` [Compound 5, (S)-N-(1-(4-(4-(5-amino-6-methoxypyrazin-2-yl)-2-(4-fluorophenyl)-1H-imidazol-5-yl)pyrimidin-2-ylamino)propan-2-yl)-2-methoxyacetamide], the figures for the EC50 in test [6] and in test [3] were 892 nM and 354 nM, respectively.
In test [7], `COc1cc(Nc2nccc(-c3[nH]c(C(C)(C)C)nc3-c3cnc(N)c(OC)n3)n2)ccn1` [Compound 9, 4-(4-(5-amino-6-methoxypyrazin-2-yl)-2-tert-butyl-1H-imidazol-5-yl)-N-(2-methoxypyridin-4-yl)pyrimidin-2-amine] came in with an EC50 of 250 nM.
As usually defined, the IC50 is the midpoint of a concentration-inhibition curve. In the case of `COc1cc(-c2nc(-c3ccc(F)cc3)[nH]c2-c2ccncc2)cnc1N` [Compound 66, 5-(2-(4-fluorophenyl)-5-(pyridin-4-yl)-1H-imidazol-4-yl)-3-methoxypyridin-2-amine], the EC50 in test [2] is 1020 nM; in test [4] it was 623 nM; in test [5], 816 nM. Moreover, in test [8], the IC50 stood at 0.0006 µM.
Consider `COCC(=O)NCCNc1nccc(-c2nc(-c3ccc(F)cc3)[nH]c2-c2cnc(N)c(OC)c2)n1` [Compound 81, N-(2-(4-(5-(6-amino-5-methoxypyridin-3-yl)-2-(4-fluorophenyl)-1H-imidazol-4-yl)pyrimidin-2-ylamino)ethyl)-2-methoxyacetamide], for which the EC50 came to 319 nM in test [1], 305 nM in test [2], 547 nM in test [4] and 194 nM in test [5]. Further, the IC50 in test [8] was 0.0001 µM.
As for `COCC(=O)NCCNc1nccc(-c2[nH]c(-c3ccc(C(F)(F)F)cc3)nc2-c2cnc(N)c(OC)c2)n1` [Compound 85, N-(2-(4-(4-(6-amino-5-methoxypyridin-3-yl)-2-(4-(trifluoromethyl)phenyl)-1H-imidazol-5-yl)pyrimidin-2-ylamino)ethyl)-2-methoxyacetamide], the EC50 in test [1] is 163 nM; in test [3] it was 111 nM. Further, the IC50 in test [8] was 0.0002 µM.
On to `COc1cc(-c2[nH]c(-c3ccc(F)cc3F)nc2-c2ccncc2)cnc1N` [Compound 106, 5-(2-(2,4-difluorophenyl)-4-(pyridin-4-yl)-1H-imidazol-5-yl)-3-methoxypyridin-2-amine], for which the results for the EC50 in test [1] and in test [3] were 674 nM and 118 nM, respectively. Further, in test [8], the IC50 turned out to be 0.001 µM.
Regarding `COCC(=O)N[C@@H](C)CNc1nccc(-c2[nH]c(-c3ccc(F)cc3)nc2-c2cnc(N)c(OC)c2)n1` [Compound 163, (S)-N-(1-(4-(4-(6-amino-5-methoxypyridin-3-yl)-2-(4-fluorophenyl)-1H-imidazol-5-yl)pyrimidin-2-ylamino)propan-2-yl)-2-methoxyacetamide], the values for the EC50 in test [1], in test [3] and in test [7] were 535 nM, 28 nM and 83 nM, respectively. The IC50 in test [8] was determined as 0.0001 µM.
`COCC(=O)N[C@@H](C)CNc1nccc(-c2[nH]c(-c3ccc(C(F)(F)F)cc3)nc2-c2cnc(N)c(OC)c2)n1` [Compound 198, (S)-N-(1-(4-(4-(6-amino-5-methoxypyridin-3-yl)-2-(4-(trifluoromethyl)phenyl)-1H-imidazol-5-yl)pyrimidin-2-ylamino)propan-2-yl)-2-methoxyacetamide] registered an EC50 in test [6] of 787 nM. Also, the IC50 in test [8] came to 0.0003 µM.

(Values after patent US20100003246A1, “Novel heterocyclic compounds and uses therof” (priority 2008, published 2010).)
